Source: patent US20130158098A1, “Alkenyl Substituted Cycloaliphatic Compounds as Chemical Inducers of Proximity” (priority 2010, published 2013)

Assays:
[1] = target: T1, VP16-PYLcs and Gal4 DBD-ABIcs (Arabidopsis thaliana, UniProt Q8VZS8); assay: ABA-induced GFP reporter activation in various cell lines; type: cell-based; settings: 100 μM, 24 h; CHO, HEK 293, Cos7, NIH3T3, TC1 cells
T1 construct: HA (from the reverse primer); expressed in transfected cells; host or cells: CHO; also HEK 293/293T, NIH3T3, COS7, B35, Jurkat, E14, TC1, MEF
T1 sequence (Q8VZS8 33-209): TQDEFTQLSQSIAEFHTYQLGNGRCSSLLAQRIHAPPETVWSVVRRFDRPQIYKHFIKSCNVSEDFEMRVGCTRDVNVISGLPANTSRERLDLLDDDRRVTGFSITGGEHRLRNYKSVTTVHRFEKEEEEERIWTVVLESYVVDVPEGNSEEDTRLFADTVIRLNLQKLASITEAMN
T1 sequence (P49597 126-423 partner): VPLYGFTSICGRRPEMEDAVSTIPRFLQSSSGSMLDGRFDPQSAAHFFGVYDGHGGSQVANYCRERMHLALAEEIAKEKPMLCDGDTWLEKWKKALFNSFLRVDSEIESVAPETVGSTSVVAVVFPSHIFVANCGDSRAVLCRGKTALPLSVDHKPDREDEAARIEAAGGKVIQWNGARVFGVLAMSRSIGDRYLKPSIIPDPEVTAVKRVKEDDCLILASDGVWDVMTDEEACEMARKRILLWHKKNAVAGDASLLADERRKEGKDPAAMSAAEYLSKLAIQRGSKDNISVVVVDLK
Text: Activation construct: A fragment of PYL1 (one of PYR/PYL/RCAR members) (aa 33-209, also referred to as “PYLcs”) was linked to a transcriptional activation domain and a fragment of ABI1 (one of PP2C members) (aa 126-423, SEQ ID NO:2, also referred to as “ABIcs”) was linked to a DNA binding domain using recombinant DNA methods. In the constructs illustrated in FIG. 1 and FIG. 2, PYL1 (“PYLcs”) is fused to the VP16 activation domain and ABI1 (“ABIcs”) is fused to the Gal4 DNA binding domain. These two regulatory elements are linked by IRES and driven by the SV40 early promoter. Reporter constructs: Full length Luciferase is driven by Fos gene minimal promoter with 5 copies of Gal4 DNA binding sites immediately upstream of Fos promoter. GFP reporter is driven by IL2 minimal promoter with 5×Gal4 DNA binding sites upstream.
ABA regulated transcriptional activation is applicable to various cell lines from different origins besides CHO cells, as shown in FIG. 7. […] 100 μM of ABA was then added to the cell culture and cells were observed under fluorescence microscope for GFP expression after another 24 h.

[2] = ABA stability in human serum (luciferase biofunctional readout); type: in vitro ADME
Method: (§1) FIG. 3C provides the results of a stability test of ABA in cell culture conditions. CHO cells were pre-transfected with the activation and reporter DNA constructs for 24 hours. 100 μM ABA was then added to the culture and cells were assayed for luciferase activity after 10 hours. During the 10-hour incubation, the cell culture media were replaced with media containing freshly added ABA every 1, 2.5, 5 hour or no replacement. FIG. 4A illustrates the results of an experiment in which human serum pre-incubated ABA was used to induce luciferase transcription. ABA was incubated with pure non-heat inactivated human serum at 37° C. for indicated time period. ABA containing serum was then added to the CHO cell culture to a final 100 μM ABA concentration for 25 hours and cells were assayed for luciferase activity. The cells were pre-transfected with the activation and reporter DNA constructs for 24 hours. FIG. 4B illustrates the results of an experiment in which fetal bovine serum pre-incubated ABA was used to induce luciferase transcription. ABA was incubated with pure heat inactivated fetal bovine serum at 37° C. for indicated time period. ABA containing serum was then added to the CHO cell culture to a final 100 μM ABA concentration for 10 hours and cells were assayed for luciferase activity. The cells were pre-transfected with the activation and reporter DNA constructs for 24 hours.
(§2) In plants, ABA had been reported to be unstable due to active enzymatic degradation (Cutler, A. J. and Krochko, J. E. (1999) Formation and breakdown of ABA. Trends Plant Sci. 4, 472-478). […] The activity of residual ABA in the serum was measured by its ability to induce the transcriptional activation of the luciferase reporter in cells expressing the ABA-activator cassette. […] Using this assay, the bioavailability in mice was evaluated. […]

[3] = ABA stability in fetal bovine serum (luciferase biofunctional readout); type: in vitro ADME; settings: 37° C.
Method: as §1, with “FIG. 4B illustrates the results of an experiment in which fetal bovine serum pre-incubated ABA was used to induce luciferase transcription. ABA was incubated with pure heat inactivated fetal bovine serum at 37° C. for indicated time period. ABA containing serum was then added to the CHO cell culture to a final 100 μM ABA concentration for 10 hours and cells were assayed for luciferase activity. The cells were pre-transfected with the activation and reporter DNA constructs for 24 hours.” left out
as §2

[4] = ABA stability in cell culture (luciferase biofunctional readout); type: in vitro ADME, Chinese hamster
Method: as §1, §2

**Q.** Which GFP reporter expression [1] does the source give for `CC1=CC(=O)CC(C)(C)C1(O)/C=C/C(C)=C/C(=O)O` (stereo not drawn) [ABA, abscisic acid] here?
**A.** only expressed after ABA was added

**Q.** And the “reduction in ability to induce transcription of luciferase” value (from here on “reduction in ability”) ([2]; pure human serum, 37° C., up to 48 hours)?
**A.** no significant reduction

**Q.** What about the “time ABA is stable in human serum” value ([2]; pure non-heat inactivated human serum, 37° C.) of the same molecule?
**A.** at least 46 hours

**Q.** And the stability in serum ([2]; serum, over 48 hours)?
**A.** stable

**Q.** And the “reduction in ability” value ([3]; pure fetal bovine serum, up to 48 hours)?
**A.** no significant reduction

**Q.** What about the “stability in fetal calf serum” value ([3]; pure heat inactivated fetal bovine serum) of the same molecule?
**A.** stable

**Q.** And the ABA activity retained ([4]; after 24 hours of incubation with CHO cells)?
**A.** about 60%

**Q.** What about the ABA activity retained ([4]; after 48 hours of incubation with CHO cells) of the same molecule?
**A.** around 23%

**Q.** And the “reduction in ability” value ([4]; cell culture media, up to 48 hours)?
**A.** no significant reduction
